Entries after “also recorded” stand apart in the source; their conditions may differ.
Columns and labels:
Assay type in all cases: in vivo, rabbit
[1] = test system: New Zealand White rabbits; test: MRI assessment of atherosclerosis in balloon denuded NZW rabbits; details: high fat diet, 100 mg/kg/day, 12 weeks
Description: (§1) Animal Model: 15 male New Zealand White rabbits (Charles River, Mass.) were fed with high fat diet (HFD) (Harlan Teklad rabbit diet with 0.5% cholesterol, TD 87251). After 4 weeks of high fat diet, rabbits were randomized into three different treatment groups, normal control (n=5), lipoic acid (100 mg/kg/day) (n=5), INV 70-65 (100 mg/kg/day) (n=5). These drugs were administered to the animals via their chow by mixing the drugs with the high fat diet. A fixed amount of chow and drugs admixed in the chow were fed to all animals every day after carefully calculating food intake in each rabbit. Drugs were dissolved in 100% ethanol and sprayed onto the diet and kept under vacuum to let ethanol evaporate overnight. Two (2) weeks after drug or control admixed HFD, all rabbits underwent aortic balloon denudation surgeries followed by 12 weeks of continued administration of drug or controls admixed with HFD. FIG. 29 provides an outline of the experimental design.
MRI experiments were conducted at two time points: 1 week and 12 weeks after the balloon denudation procedure (FIG. 29). […] MR images were analyzed using a Siemens Leonardo Workstation (Siemens Healthcare Inc. Germany).
To assess the different rates of atherosclerosis plaque progression for each rabbit group, the aortic wall was identified in the pre-contrast images at both MRI time points. […] To account for the variable number of slices, for each rabbit a normalized aortic wall volume was calculated.
To assess plaque neovasculature progression in the different treatment groups, only the 12 weeks post balloon denudation MR images were used. […] The signal to noise ratio (SNR) for each slice was calculated as the mean signal obtained from the vessel wall divided by the standard deviation of the noise from a region outside the body. A ratio of the SNR enhancement for each rabbit was obtained by dividing the post and pre contrast calculated SNRs.

[2] = test system: thoracic aorta of New Zealand White rabbits; test: Myograph experiments on thoracic aortic rings of NZW rabbits; details: NZW thoracic aorta, end of 12 weeks
Description: as §1
Rabbits were euthanized by injection of lethal doses of pentobarbital. The thoracic aortas were collected for the myograph studies. Two (2) mm thoracic aortic rings were suspended in individual organ chambers filled with physiological salt solution buffer (sodium chloride, 130 mEq/L; potassium chloride, 4.7 mEq/L; calcium dichloride, 1.6 mEq/L; magnesium sulfate, 1.17 mEq/L; potassium diphosphate, 1.18 mEq/L; sodium bicarbonate, 14.9 mEq/L; EDTA, 0.026 mEq/L; and glucose, 99.1 mg/dL [5.5 mmol/L]; pH, 7.4), aerated continuously with 5% carbon dioxide in oxygen at 37° C. Vessels were allowed to equilibrate for at least 1 hour at a resting tension of 30 mN before being subjected to graded doses of agonists. The vasoconstrictor agonist phenylephrine (PE) was used and responses were expressed as a percentage of the peak response to 120 mEq/L of potassium chloride. The vessels subjected to PE were washed thoroughly and allowed to equilibrate for 1 hour before beginning experiments with acetylcholine or sodium nitroprusside (SNP). […] Results for the vasodilators were expressed as a percentage of pre-contraction by PE (0.1 μM).

[3] = test system: New Zealand White rabbits; test: Oil Red O staining of abdominal aorta of NZW rabbits; details: NZW abdominal aorta
Description: as §1
Hypercholesterolemia and oxidative stress play an important role in the development of atherosclerosis. The rabbits were sacrificed and abdominal aortas were fixed in 4% PFA (paraformaldehyde). The lipid deposition in the aortic wall was then visualized by oil red staining.

[4] = test system: New Zealand White rabbits; test: Plasma lipid profile in NZW rabbits; details: end of treatment
Description: as §1
A lipid profile (Cholesterol, Triglycerides, direct HDL, LDL and VLDL) was performed after a total of 12 weeks of treatment with the drugs. One (1) ml of blood from the ear lobe vein was placed into tubes containing K EDTA at the beginning of the high cholesterol diet and again at the time of sacrifice. All values were expressed as mean±SD. The bar graph of each group both at the baseline and the end point measurement is presented. The statistical analysis was done with one way ANOVA.

In the case of `O=C(O)CCCC[C@@H]1CCSS1` (racemic) [Lipoic Acid, lipoic acid, reference compound], the “plaque burden by MRI” value [1] is reported as “no difference”, the “Ach LogEC50” value [2] is reported as −6.47 ± 0.18 M and the “PE LogEC50” value [2] is reported as −6.48 ± 0.09 M. For the same compound, the “SNP-1 LogEC50” value [2] was −6.75 ± 0.21 M, the “PE Maximum Effect” value ([2]; % of peak response to KCl) was 154.0 ± 7.24% and the “Ach Maximum Effect” value ([2]; % of pre-contraction by PE) was −33.00 ± 2.94 %. For the same compound, the “Insulin Maximum Effect” value ([2]; % of pre-contraction by PE) was −107.8 ± 7.68%, the “SNP-1 Maximum Effect” value ([2]; % of pre-contraction by PE) was −89.04 ± 7.67% and the “lipid content in the plaque area (Oil Red O) compared to the control group” value [3] was “reduction”. The HDL levels [4] was “increased moderately”, the “LDL level compared to normal control” value [4] was “moderate decreases; also recorded: lower” and the “TC level compared to normal control” value [4] was “moderate decreases”. For the same compound, the “VLDL levels compared to controls” value [4] was “no change” and the “triglyceride (TG) levels compared to controls” value [4] was “significantly decreased”.
